27 compounds from US10865211B2 (ENANTA PHARMACEUTICALS, INC, priority 2018, dated 2020) can be followed below.

Usually EC50 stands for the concentration that produces a half-maximal response. Low readings indicate an effect from little substance, high ones a need for much substance. By CC50 is commonly meant the concentration that lowers cell viability or growth by half.

The subject of series [1] is 2.2.15 cells. The experiment in a line: Antiviral activity in 2.2.15 cells: reduction of viral product accumulation (qPCR, HBsAg/HBeAg ELISA). In kind it is cell-based, HBV. To be noted: Hepatitis B virus, 120 h, day 5 post treatment, concentration reducing viral product accumulation in cell lysates or supernatants by 50% relative to no drug controls. On the procedure: 2.2.15 cells are passaged upon attaining confluency in DMEM/F12 media in the presence of 10% FBS, Penn/Strep, and 250 ug/mL G418. Novel compounds are 5 fold serially diluted in DMSO and added to 96 well plates containing 35,000 cells/well at a 1:200 dilution so that the final concentration of DMSO is 0.5%. On day 5, post treatment cell lysates and supernatants are harvested for analysis.
Cells are lysed using Agilent Sidestep Lysis buffer, diluted 1:100 and quantified via quantitative real time PCR. Commercially available ELISA kits are used to quantitate the viral proteins HBsAg (Alpco) or HBeAg (US Biological) by following the manufacturer's recommended protocol after diluting samples to match the linear range of their respective assays. Irrespective of readout, compound concentrations that reduce viral product accumulation in the cell lysates or supernatants by 50% relative to no drug controls (EC50) are reported; EC50 ranges are as follows: A<0.1 μM; B 0.1-1 μM; C>1 μM.
Background: In qPCR the cycle at which signal appears reflects the starting amount.

The nature of series [2]: Compound induced cellular toxicity in HepG2 cells (ATPlite). The series is classed as cell-based. The settings on record: human, three days, ATPlite 1 Step, concentration reducing total ATP levels by 50% relative to no drug controls. The method, then:
At day 3, post seeding cells are treated with ATPlite 1 Step according to the manufacturer's instructions.

Turning to `CC(C)[C@@H]1Cc2c(oc3c(OC(F)F)cccc23)-c2cc(=O)c(C(=O)O)cn21` [Example 77, (S)-11-(difluoromethoxy)-6-isopropyl-2-oxo-6,7-dihydro-2H-benzofuro[2,3-a]quinolizine-3-carboxylic acid], the half-maximal effective concentration (EC50) in series [1] is below 0.1 µM. Besides, the 50% cytotoxic concentration (CC50) at 3 days in series [2] is above 25 µM.

Turning to `CC(C)(C)[C@@H]1Cc2c(oc3c(-c4cnco4)cccc23)-c2cc(=O)c(C(=O)O)cn21` [Example 27, (S)-6-(tert-butyl)-11-(oxazol-5-yl)-2-oxo-6,7-dihydro-2H-benzofuro[2,3-a]quinolizine-3-carboxylic acid], the EC50 in series [1] was below 0.1 µM. The compound also showed a CC50 at 3 days in series [2] of 10 to 25 µM.

`Cn1cc(-c2cccc3c4c(oc23)-c2cc(=O)c(C(=O)O)cn2[C@H](C(C)(C)C)C4)cn1` [Example 29, (S)-6-(tert-butyl)-11-(1-methyl-1H-pyrazol-4-yl)-2-oxo-6,7-dihydro-2H-benzofuro[2,3-a]quinolizine-3-carboxylic acid]: the EC50 in series [1] is below 0.1 µM. In series [2], this compound came in with a 50% cytotoxic concentration (CC50) at 3 days of 10 to 25 µM.

For the compound `CC(C)[C@@H]1Cc2c(oc3c(-c4ccoc4)cccc23)-c2cc(=O)c(C(=O)O)cn21` [Example 66, (S)-11-(furan-3-yl)-6-isopropyl-2-oxo-6,7-dihydro-2H-benzofuro[2,3-a]quinolizine-3-carboxylic acid], in series [1], the 50% effective concentration (EC50) was below 0.1 µM. In addition, in series [2], the 50% cytotoxic concentration (CC50) at 3 days lay in the range of 10 to 25 µM.

In series [1], `CC(C)(C)[C@@H]1Cc2c(oc3cc(C#N)ccc23)-c2cc(=O)c(C(=O)O)cn21` [Example 12, (S)-6-(tert-butyl)-10-cyano-2-oxo-6,7-dihydro-2H-benzofuro[2,3-a]quinolizine-3-carboxylic acid] had an EC50 below 0.1 µM. Besides, the 50% cytotoxic concentration (CC50) at 3 days in series [2] was above 25 µM.

In series [1], `CC(C)[C@@H]1Cc2c(oc3cc(OC(F)F)ccc23)-c2cc(=O)c(C(=O)O)cn21` [Example 68, (S)-10-(difluoromethoxy)-6-isopropyl-2-oxo-6,7-dihydro-2H-benzofuro[2,3-a]quinolizine-3-carboxylic acid] had a half-maximal effective concentration (EC50) below 0.1 µM. This compound registered a 50% cytotoxic concentration (CC50) at 3 days in series [2] below 10 µM.

`CC(C)(C)[C@@H]1Cc2c(oc3cc(OC(F)F)ccc23)-c2cc(=O)c(C(=O)O)cn21` [Example 6, (S)-6-(tert-butyl)-10-(difluoromethoxy)-2-oxo-6,7-dihydro-2H-benzofuro[2,3-a]quinolizine-3-carboxylic acid] showed an EC50 in series [1] below 0.1 µM. The same compound registered a CC50 at 3 days in series [2] of 10 to 25 µM.

`CC(C)[C@@H]1Cc2c(oc3cc(-c4ccsc4)ccc23)-c2cc(=O)c(C(=O)O)cn21` [Example 76, (S)-6-isopropyl-2-oxo-10-(thiophen-3-yl)-6,7-dihydro-2H-benzofuro[2,3-a]quinolizine-3-carboxylic acid] came in with a concentration giving a half-maximal response (EC50) in series [1] below 0.1 µM. In series [2], the CC50 at 3 days was above 25 µM.

On to `CC(C)[C@@H]1Cc2c(oc3c(-c4cnco4)cccc23)-c2cc(=O)c(C(=O)O)cn21` [Example 84, (S)-6-isopropyl-11-(oxazol-5-yl)-2-oxo-6,7-dihydro-2H-benzofuro[2,3-a]quinolizine-3-carboxylic acid], for which the 50% effective concentration (EC50) in series [1] was below 0.1 µM. Also, the half-maximal cytotoxic concentration (CC50) at 3 days in series [2] was above 25 µM.

In series [1], `CC(C)[C@@H]1Cc2c(oc3c(C4CC4)cccc23)-c2cc(=O)c(C(=O)O)cn21` [Example 83, (S)-11-cyclopropyl-6-isopropyl-2-oxo-6,7-dihydro-2H-benzofuro[2,3-a]quinolizine-3-carboxylic acid] showed a 50% effective concentration (EC50) below 0.1 µM. The half-maximal cytotoxic concentration (CC50) at 3 days in series [2] is below 10 µM.

The compound `CC(C)(C)[C@@H]1Cc2c(oc3c(-n4cccn4)cccc23)-c2cc(=O)c(C(=O)O)cn21` [Example 42, (S)-6-(tert-butyl)-2-oxo-11-(1H-pyrazol-1-yl)-6,7-dihydro-2H-benzofuro[2,3-a]quinolizine-3-carboxylic acid] yielded an EC50 in series [1] below 0.1 µM. Also, the CC50 at 3 days in series [2] is above 25 µM.

In series [1], `CC(C)(C)[C@@H]1Cc2c(oc3c(OC(F)F)cccc23)-c2cc(=O)c(-c3ncn[nH]3)cn21` [Example 8, (S)-6-(tert-butyl)-11-(difluoromethoxy)-3-(1H-1,2,4-triazol-5-yl)-6,7-dihydro-2H-benzofuro[2,3-a]quinolizin-2-one] displayed an EC50 below 0.1 µM. Besides, the CC50 at 3 days in series [2] was above 25 µM.

Consider `CC(C)[C@@H]1Cc2c(oc3c(C#N)cccc23)-c2cc(=O)c(C(=O)O)cn21` [Example 78, (S)-11-cyano-6-isopropyl-2-oxo-6,7-dihydro-2H-benzofuro[2,3-a]quinolizine-3-carboxylic acid], for which, in series [1], the concentration giving a half-maximal response (EC50) was below 0.1 µM. This compound also came in with a CC50 at 3 days in series [2] above 25 µM.

In turn, `CC(C)(C)[C@@H]1Cc2c(oc3cc(-c4cnco4)ccc23)-c2cc(=O)c(C(=O)O)cn21` [Example 17, (S)-6-(tert-butyl)-10-(oxazol-5-yl)-2-oxo-6,7-dihydro-2H-benzofuro[2,3-a]quinolizine-3-carboxylic acid] had an EC50 in series [1] below 0.1 µM. This compound came in with a 50% cytotoxic concentration (CC50) at 3 days in series [2] above 25 µM.

On to `CC(C)(C)[C@@H]1Cc2c(oc3c(-c4nccs4)cccc23)-c2c(F)c(=O)c(C(=O)O)cn21` [Example 61, (S)-6-(tert-butyl)-1-fluoro-2-oxo-11-(thiazol-2-yl)-6,7-dihydro-2H-benzofuro[2,3-a]quinolizine-3-carboxylic acid], for which the EC50 in series [1] is below 0.1 µM. This compound also yielded a CC50 at 3 days in series [2] above 25 µM.

`O=C(O)c1cn2c(cc1=O)-c1oc3ccccc3c1CC2c1ccccc1` (stereo not drawn) [Example 2, 2-oxo-6-phenyl-6,7-dihydro-2H-benzofuro[2,3-a]quinolizine-3-carboxylic acid]: in series [1], the EC50 was above 1 µM. This compound also displayed a CC50 at 3 days in series [2] above 25 µM.

Compound `CC(C)(C)[C@@H]1Cc2c(oc3c(-c4cscn4)cccc23)-c2c(F)c(=O)c(C(=O)O)cn21` [Example 62, (S)-6-(tert-butyl)-1-fluoro-2-oxo-11-(thiazol-4-yl)-6,7-dihydro-2H-benzofuro[2,3-a]quinolizine-3-carboxylic acid] registered an EC50 in series [1] below 0.1 µM. In series [2], this compound showed a CC50 at 3 days of 10 to 25 µM.

Compound `CC(C)(C)[C@@H]1Cc2c(oc3c(C4CC4)cccc23)-c2c(F)c(=O)c(C(=O)O)cn21` [Example 65, (S)-6-(tert-butyl)-11-cyclopropyl-1-fluoro-2-oxo-6,7-dihydro-2H-benzofuro[2,3-a]quinolizine-3-carboxylic acid] had an EC50 in series [1] below 0.1 µM. The compound further yielded a CC50 at 3 days in series [2] above 25 µM.

For `CC(C)(C)[C@@H]1Cc2c(oc3c(-c4ccn[nH]4)cccc23)-c2cc(=O)c(C(=O)O)cn21` [Example 33, (S)-6-(tert-butyl)-2-oxo-11-(1H-pyrazol-5-yl)-6,7-dihydro-2H-benzofuro[2,3-a]quinolizine-3-carboxylicacid], the EC50 in series [1] is below 0.1 µM. For the same compound, the cytotoxic concentration (CC50) at 3 days in series [2] was above 25 µM.

In series [1], `Cc1cccc2c3c(oc12)-c1c(F)c(=O)c(C(=O)O)cn1[C@H](C(C)(C)C)C3` [Example 64, (S)-6-(tert-butyl)-1-fluoro-11-methyl-2-oxo-6,7-dihydro-2H-benzofuro[2,3-a]quinolizine-3-carboxylic acid] returned a concentration giving a half-maximal response (EC50) below 0.1 µM. In series [2], this compound displayed a CC50 at 3 days above 25 µM.

As to `CC(C)(C)[C@@H]1Cc2c(oc3cc(C4CC4)ccc23)-c2cc(=O)c(C(=O)O)cn21` [Example 23, (S)-6-(tert-butyl)-10-cyclopropyl-2-oxo-6,7-dihydro-2H-benzofuro[2,3-a]quinolizine-3-carboxylic acid], in series [1], the concentration for a half-maximal effect (EC50) is below 0.1 µM. The compound further registered a half-maximal cytotoxic concentration (CC50) at 3 days in series [2] of 10 to 25 µM.

For the compound `CCC1Cc2c(oc3ccccc23)-c2cc(=O)c(C(=O)O)cn21` (stereo not drawn) [Example 1, 6-ethyl-2-oxo-6,7-dihydro-2H-benzofuro[2,3-a]quinolizine-3-carboxylic acid], the concentration for a half-maximal effect (EC50) in series [1] lay in the range of 0.1 to 1 µM. This compound also registered a CC50 at 3 days in series [2] above 25 µM.

In series [1], `Cn1cc(-c2ccc3c4c(oc3c2)-c2cc(=O)c(C(=O)O)cn2[C@H](C(C)(C)C)C4)cn1` [Example 10, (S)-6-(tert-butyl)-10-(1-methyl-1H-pyrazol-4-yl)-2-oxo-6,7-dihydro-2H-benzofuro[2,3-a]quinolizine-3-carboxylic acid] returned an EC50 below 0.1 µM. The compound also displayed a CC50 at 3 days in series [2] above 25 µM.

`CC(C)[C@@H]1Cc2c(oc3c(N4CCC(F)(F)C4)cccc23)-c2cc(=O)c(C(=O)O)cn21` [Example 71] had a concentration for a half-maximal effect (EC50) in series [1] below 0.1 µM. The CC50 at 3 days in series [2] was below 10 µM.

With `Cc1ccc2c3c(oc2c1)-c1cc(=O)c(C(=O)O)cn1[C@H](C(C)C)C3` [Example 73, (S)-6-isopropyl-10-methyl-2-oxo-6,7-dihydro-2H-benzofuro[2,3-a]quinolizine-3-carboxylic acid], the EC50 in series [1] was below 0.1 µM. In addition, the half-maximal cytotoxic concentration (CC50) at 3 days in series [2] was above 25 µM.

The compound `CC(C)(C)[C@@H]1Cc2c(oc3c(-c4nccs4)cccc23)-c2cc(=O)c(C(=O)O)cn21` [Example 41, (S)-6-(tert-butyl)-2-oxo-11-(thiazol-2-yl)-6,7-dihydro-2H-benzofuro[2,3-a]quinolizine-3-carboxylic acid] came in with an EC50 in series [1] below 0.1 µM. Further, in series [2], the CC50 at 3 days lay in the range of 10 to 25 µM.

In series [1], `CC(C)(C)[C@@H]1Cc2c(oc3c(-n4cccn4)cccc23)-c2c(F)c(=O)c(C(=O)O)cn21` [Example 63, (S)-6-(tert-butyl)-1-fluoro-2-oxo-11-(1H-pyrazol-1-yl)-6,7-dihydro-2H-benzofuro[2,3-a]quinolizine-3-carboxylic acid] displayed an EC50 below 0.1 µM. In series [2], this compound showed a CC50 at 3 days above 25 µM.
